Measured values as given in patent publication US8946446B2, “Pyrrolo sulfonamide compounds for modulation of orphan nuclear receptor RAR-related orphan receptor-γ (ROR-γ, NR1F3) activity and for the treatment of chronic inflammatory and autoimmune diseases” (Phenex Pharmaceuticals AG, priority 2011, dated 2015).

target: T1, RORγ ligand binding domain (LBD) (Homo sapiens, UniProt P51449); test: TR-FRET Activity Assay (ligand sensing, RORγ-LBD / coactivator peptide interaction); assay type: biochemical; settings: not given
T1 construct: made in house; host or cells: E. coli BL-21 (BL3), vector pDEST15
T1 sequence (P51449 269-508 limits assumed): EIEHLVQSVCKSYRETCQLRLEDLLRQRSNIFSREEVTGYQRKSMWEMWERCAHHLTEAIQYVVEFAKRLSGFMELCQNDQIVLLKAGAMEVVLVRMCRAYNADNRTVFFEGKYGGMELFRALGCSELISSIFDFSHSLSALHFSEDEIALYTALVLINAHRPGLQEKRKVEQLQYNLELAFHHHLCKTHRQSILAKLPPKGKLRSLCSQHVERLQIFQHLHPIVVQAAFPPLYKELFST
From the text: This method measures the ability of putative ligands to modulate the interaction between the purified bacterial expressed RORγ ligand binding domain (LBD) and synthetic N-terminally biotinylated peptides which are derived from nuclear receptor coactivator proteins such as but not limited to SRC1 (NcoA1), SRC2 (NcoA2, TIF2), SRC3 (NcoA3), PGC1α, PGC1β, CBP, GRIP1, TRAP220, RIP140.
The ligand-binding domain (LBD) of RORγ was expressed as fusion protein with GST in […] cells using the vector pDEST15. Cells were lysed by lysozyme-treatment and sonication, and the fusion proteins purified over glutathione sepharose (Pharmacia) according to the manufacturers instructions. For screening of compounds for their influence on the RORγ-peptide interaction, the LANCE technology (Perkin Elmer) was applied. This method relies on the binding dependent energy transfer from a donor to an acceptor fluorophor attached to the binding partner of interest. For ease of handling and reduction of background from compound fluorescence LANCE technology makes use of generic fluorophore labels and time resolved detection assays were done in a final volume of 25 μL in a 384 well plate, in a Tris-based buffer system (20 mM Tris-HCl pH6.8; 60 mM KCl, 1 mM DTT; 5 mM MgCl2; 35 ng/μL BSA), containing 20-60 ng/well recombinantly expressed RORγ-LBD fused to GST, 200-600 nM N-terminally biotinylated peptide, 200 ng/well Streptavidin-xIAPC conjugate (Prozyme) and 6-10 ng/well Eu W1024-antiGST (Perkin Elmer). DMSO content of the samples was kept at 1%.
After generation of the Tris-based buffer system, the potentially RORγ modulating ligands were diluted. […] The LANCE signal was detected by a Perkin Elmer EnVision™ Multilabel Counter. The results were visualized by plotting the ratio between the emitted light at 665 nm and 615 nm. […] Ligands that promote the complex formation induce a concentration-dependent increase in time-resolved fluorescent signal.
The normalised TR-FRET assay values, using the following equation: 1000*665 nm measurement value/615 nm measurement value, were transferred to the program GraphPad Prism to generate graphs and dose response curves using the following equation:
Equation: Sigmoidal Dose-Response (Variable Slope) Y=Bottom+(Top-Bottom)/(1+10^((LogEC50−X)*HillSlope)) X is the logarithm of the concentration. Y is the response. Y starts at Bottom and goes to Top with a sigmoidal shape.
This is identical to the “four parameter logistic equation”. The IC50 values are calculated using this equation.

In the case of Cc1c(S(N)(=O)=O)cc(-c2cc(C(C)(C)C)cc(C(C)(C)CO)c2)n1CC1CCCCC1 [Example 50], the IC50 is reported as over 2000 nM.

same assay, conditions: read-out: RORγ activity in the TR-FRET Activity Assay (IC50 FRET), Group

First: CC(C)(C)c1cc(-c2cc(S(N)(=O)=O)c(C#N)n2CC2CCCCC2)cc(C(C)(C)C)c1 [Example 33, 2-Cyano-1-(cyclohexylmethyl)-5-(3,5-di-tert-butylphenyl)-1H-pyrrole-3-sulfonamide]
Second: Cc1c(S(N)(=O)=O)cc(-c2cc(C(C)(C)C)cc(C(C)(C)C#N)c2)n1CC1CCCCC1 [Example 45, 5-(3-(tert-Butyl)-5-(2-cyanopropan-2-yl)phenyl)-1-(cyclohexylmethyl)-2-methyl-1H-pyrrole-3-sulfonamide]
The IC50 of the first is lower: under 500 nM for the first, 500 to 2000 nM for the second. The first is the more potent here.

Cc1c(S(N)(=O)=O)cc(-c2cc(C(F)(F)F)c(=O)n(CC(C)(C)C)c2)n1CC1CCCCC1 [Example 34, 1-(Cyclohexylmethyl)-2-methyl-5-(1-neopentyl-6-oxo-5-(trifluoromethyl)-1,6-dihydropyridin-3-yl)-1H-pyrrole-3-sulfonamide] and Cc1c(S(N)(=O)=O)cc(-c2cc(C(C)(C)C)cc(C(C)(C)CN)c2)n1CC1CCCCC1 [Example 48, 5-(3-(1-Amino-2-methylpropan-2-yl)-5-(tert-butyl)phenyl)-1-(cyclohexyl-methyl)-2-methyl-1H-pyrrole-3-sulfonamide] cannot be ordered by IC50: over 2000 nM for the first, over 2000 nM for the second.

Cc1c(S(N)(=O)=O)cc(-c2cc(C(C)(C)O)c3c(c2)C2(CCO3)CC2)n1CC1CCCCC1 [Example 37, 1-(Cyclohexylmethyl)-5-(8-(2-hydroxypropan-2-yl)spiro[chroman-4,1′-cyclopropan]-6-yl)-2-methyl-1H-pyrrole-3-sulfonamide] and Cc1c(S(N)(=O)=O)cc(-c2cc(C(C)(C)C)cc(C(C)(C)C(=O)O)c2)n1CC1CCCCC1 [Example 46, 2-(3-(tert-Butyl)-5-(1-(cyclohexylmethyl)-5-methyl-4-sulfamoyl-1H-pyrrol-2-yl)phenyl)-2-methylpropanoic acid] cannot be ordered by IC50: over 2000 nM for the first, over 2000 nM for the second.

First: Cc1c(S(=O)(=O)NCCC(=O)O)cc(-c2cc(C(C)(C)C)cc(C(C)(C)C)c2)n1CC1CCCCC1 [Example 39, 3-(1-(Cyclohexylmethyl)-5-(3,5-di-tert-butylphenyl)-2-methyl-1H-pyrrole-3-sulfonamido)propanoic acid]
Second: Cc1c(S(=O)(=O)NCCC(N)=O)cc(-c2cc(C(C)(C)C)cc(C(C)(C)C)c2)n1CC1CCCCC1 [Example 40, 3-(1-(cyclohexylmethyl)-5-(3,5-di-tert-butylphenyl)-2-methyl-1H-pyrrole-3-sulfonamido)propanamide]
The IC50 of the first is higher: 500 to 2000 nM for the first, under 500 nM for the second.

Going from Cc1c(S(=O)(=O)NCCC(N)=O)c(Cl)c(-c2cc(C(C)(C)C)cc(C(C)(C)C)c2)n1CC1CCCCC1 [Example 41, 3-(4-chloro-1-(cyclohexylmethyl)-5-(3,5-di-tert-butylphenyl)-2-methyl-1H-pyrrole-3-sulfonamido)propanamide] to Cc1c(S(=O)(=O)NCC(=O)O)cc(-c2cc(C(C)(C)C)cc(C(C)(C)C)c2)n1CC1CCCCC1 [Example 43, 2(1-(Cyclohexylmethyl)-5(3,5-di-tert-butylphenyl)-2-methyl-1H-pyrrole-3-sulfonamido)acetic acid], the IC50 rises from under 500 nM to over 2000 nM. The first is the more potent here.

First: Cc1c(S(=O)(=O)N2CCOCC2)cc(-c2cc(C(C)(C)C)cc(C(C)(C)C)c2)n1CC1CCCCC1 [Example 44, 4-((1-(Cyclohexylmethyl)-5-(3,5-di-tert-butylphenyl)-2-methyl-1H-pyrrol-3-yl)sulfonyl)morpholine]
Second: CC(=O)NCC(C)(C)c1cc(-c2cc(S(N)(=O)=O)c(C)n2CC2CCCCC2)cc(C(C)(C)C)c1 [Example 49, N-(2-(3-(tert-Butyl)-5-(1-(cyclohexylmethyl)-5-methyl-4-sulfamoyl-1H-pyrrol-2-yl)phenyl)-2-methylpropyl)acetamide]
The IC50 of the first is lower: under 500 nM for the first, over 2000 nM for the second. The first is the more potent here.

In the case of Cc1c(S(N)(=O)=O)cc(-c2cn(S(=O)(=O)c3ccccc3Cl)c3ccccc23)n1CC1CCCCC1 [Example 53, 5-(1-((2-Chlorophenyl)sulfonyl)-1H-indol-3-yl)-1-(cyclohexylmethyl)-2-methyl-1H-pyrrole-3-sulfonamide], the IC50 is reported as 500 to 2000 nM.
